The source of these data is patent publication US5998487A, “Anti-inflammatory and antibacterial benzyl phenol agents and their use in oral compositions” (Colgate-Palmolive Company, priority 1998, dated 1999).

The subject of one data set is caries. The following applies: hamsters; Stralfors 1967; cited from earlier work.
The next data set concerns A. viscosus. The data set is described as follows: MIC (Minimum Inhibitory Concentration) test. The class given is cell-based. The following applies: for MIC: Actinomyces viscosus, read-out: MIC (Bacterial Minimum Inhibitory Concentration). The method, then: The smaller the MIC, the greater the antibacterial activity of the compound being tested.
Using a 96 well microtiter plate, a 100 μl of trypticase soy broth (TSB) media, available from BBL, Cockeysville, Md. 21030, was placed in each of the 12 columns within the plate. Using a octapette pipettor, the 2-t-butyl-4-(4-t-butylbenzyl)-phenol compound was serially diluted to each of the 12 columns, from 125 ppm in the first well of each column, to 0.061 ppm in the 12th (each column containing 1/2 the concentration of 2-t-butyl-4-(4-t-butylbenzyl)-phenol compound than the previous column). To each of the 12 columns an additional 100 μl of TBS was added containing A. viscosus bacterium, a common oral bacteria, at a concentration optical density of 0.1, at 610 nm. The plate was then sealed and incubated for 24 hours at 37° C.
The procedure of Example IV was simultaneously run with water as a negative control and using a known efficacious antibacterial agent, triclosan, as a comparative and positive control. The MIC determined for the triclosan is also recorded in Table III for comparative purposes.

Data set [1] deals with PGE2 production in Human Embryo Palatal Mesenchyme cells (HEPM, ATCC #1486). As to the kind of experiment: Inhibition of PGE2 production in IL-1β-stimulated HEPM cells. The class given is cell-based. The following applies: for IC50: Homo sapiens, read-out: IC50 Concentration to Inhibit 50% of PGE2. The method, then:
Specifically, Human Embryo Palatal Mesenchyme cells (HEPM, ATCC #1486) cells were grown in high glycose Delbeco's Modified Eagles Medium (DMEM, Gibco/BRL-Life Technologies, Grand Island, N.Y.) containing 10% heat inactivated fetal bovine serum (FBS, Gibco/BRL). The cells were grown at 37° C., 100% humidity, and 10% CO2. Prior to analysis, the cells were subcultured into 24 well plates, to form 12 sets of duplicate cultures, and allowed to become 70-90% confluent. On day one of the experiment, the cells were washed three times with serum free media (containing 0.5% bovine serum albumin, BSA), followed by replacement with BSA containing media alone (the negative control) in the first culture set; media and 1.0 ng/mL IL-1β (the positive control, without any inhibitor) in the second culture set; and media, 1.0 ng/mL IL-1β, and a range of from 0.01 μM to 50 μM of 2-t-butyl-4-(4-t-butylbenzyl)-phenol in the third thru twelfth culture sets. Exposure was for 24 hours at which time the media was removed from each well, the media's pH was adjusted to 3.5 with HCl, and the media was analyzed for PGE2 produced using a PerSeptive Diagnostics TiterFluor PGE2 EIA kit, available from PerSeptive Biosystems, Framingham, Mass. 01701.
Prior to determining the PGE2 inhibitory effect of the 2-t-butyl-4-(4-t-butylbenzyl)-phenol compound of the present invention, the results must be normalized with respect to the number of viable cells in each culture well; more or less cells producing correspondingly more or less PGE2. […] Once dissolved, the spectroscopic absorbance of 100 μl of the isopropanol solution from each culture well was determined at 570 nm. A normalization factor, the cell concentration ratio, was calculated for each culture well, by dividing the absorbance of the particular culture well's isopropanol solution by the average absorbance of the unstimulated negative control set's isopropanol solutions. The PGE2 originally determined for each culture well was then normalized by being […] the cell concentration ratio calculated for that particular culture well. […]

Another data set addresses T1, COX-2 (Homo sapiens, UniProt P35354).
T1 sequence (P35354 18-604): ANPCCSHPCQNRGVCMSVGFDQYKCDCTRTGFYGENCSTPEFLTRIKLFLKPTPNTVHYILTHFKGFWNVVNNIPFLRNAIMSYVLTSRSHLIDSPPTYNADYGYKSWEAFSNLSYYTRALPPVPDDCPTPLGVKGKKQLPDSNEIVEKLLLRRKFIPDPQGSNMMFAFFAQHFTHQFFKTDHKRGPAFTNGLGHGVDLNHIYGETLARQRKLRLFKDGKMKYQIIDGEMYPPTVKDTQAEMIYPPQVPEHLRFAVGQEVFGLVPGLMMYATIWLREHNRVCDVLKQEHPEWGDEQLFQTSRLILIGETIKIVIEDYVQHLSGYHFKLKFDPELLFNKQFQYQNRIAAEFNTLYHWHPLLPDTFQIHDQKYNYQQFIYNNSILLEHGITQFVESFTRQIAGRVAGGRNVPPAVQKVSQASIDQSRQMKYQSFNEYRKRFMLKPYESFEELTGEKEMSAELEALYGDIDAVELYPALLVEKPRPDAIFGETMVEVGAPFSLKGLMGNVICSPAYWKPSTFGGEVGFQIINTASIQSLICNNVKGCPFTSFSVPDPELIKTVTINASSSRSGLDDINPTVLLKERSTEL
The data set is described as follows: COX-2 inhibition, oxygen utilization assay. The class given is biochemical. The source says: (§1) The efficacy of the AAB compounds of the present invention as inhibitors of COX-1 and COX-2 enzymes was shown using the oxygen utilization assay described in Dewhirst, Prostaglandins, 22, 209-222 (1980). Varying concentrations of 2-t-butyl-4-(4-t-butylbenzyl)-phenol, a compound of the present invention were selected that inhibit the enzymatic activity from 20% to about 80%, as compared to a positive control, no inhibitor. These varying concentrations of 2-t-butyl-4-(4-t-butylbenzyl)-phenol were independently added to COX-1 and COX-2 enzymes in a closed system, in which the enzymes were reacted in a reaction requiring molecular oxygen. The degree of inhibition of the COX enzyme activity was measured by the reduction in monitored oxygen consumption as a function of time within the closed system. The COX enzyme IC50, concentration of 2-t-butyl-4-(4-t-butylbenzyl)-phenol found to inhibit 50% of the activity of the COX-1 and COX-2 enzymes is recorded in Table II.
(§2) For comparison, the COX enzyme IC50 assay methodology of Example III was repeated using triclosan, an agent known to inhibit PG by inhibiting the production of its COX-1 and COX-2 precursors.

The target in a further data set is COX-1 (Ovis aries, UniProt P05979). The data set is described as follows: COX-1 inhibition, oxygen utilization assay. The class given is biochemical. The note with it: for IC50: oxygen consumption, read-out: IC50 Conc. to Inhibit 50% of COX-1 Activity.
Excerpt: as §1, §2

In the next data set the test system is microbial challenge. The note with it: EP 0 528 468 A1; cited from earlier work.
In the next data set the test system is cyclooxygenase. The following applies: EP 0 528 468 A1; cited from earlier work.

≈ marks a conversion by molar mass, not a printed value. Read-outs that look alike come from different tables or passages of the source.

Sequence of COX-1 (P05979 25-600): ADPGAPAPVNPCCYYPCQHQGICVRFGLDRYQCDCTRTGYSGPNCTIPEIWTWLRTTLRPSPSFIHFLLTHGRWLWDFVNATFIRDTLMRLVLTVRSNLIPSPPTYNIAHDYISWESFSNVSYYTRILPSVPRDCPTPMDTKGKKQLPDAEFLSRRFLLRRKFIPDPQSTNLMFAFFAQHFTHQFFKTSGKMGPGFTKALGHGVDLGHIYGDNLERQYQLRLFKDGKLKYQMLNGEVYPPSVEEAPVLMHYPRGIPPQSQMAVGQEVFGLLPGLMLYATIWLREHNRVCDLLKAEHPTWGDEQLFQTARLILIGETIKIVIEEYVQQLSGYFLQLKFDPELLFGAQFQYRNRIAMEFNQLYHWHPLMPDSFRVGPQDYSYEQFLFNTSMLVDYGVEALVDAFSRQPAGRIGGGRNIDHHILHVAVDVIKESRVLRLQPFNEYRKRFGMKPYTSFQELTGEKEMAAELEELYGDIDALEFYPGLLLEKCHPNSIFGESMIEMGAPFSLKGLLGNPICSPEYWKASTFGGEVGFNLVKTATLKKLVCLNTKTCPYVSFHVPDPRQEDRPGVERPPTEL

Take `O=C(O)c1ccc(O)c(O)c1` [protocatechuic acid, 3,4-dihydroxybenzoic acid]: in the data set with caries, the adverse weight loss entry is on record as “without adverse weight loss” and the inhibition of caries entry is given as “inhibit caries”.
As for `CC(C)(C)c1ccc(Cc2ccc(O)c(C(C)(C)C)c2)cc1` [2-t-butyl-4-(4-t-butylbenzyl)-phenol], in the data set on A. viscosus (A. viscosus, TSB, 24 hours, 37° C.), the MIC amounted to 0.24 µg/mL (≈ 0.81 µM). Further, the “MIC relative to that of triclosan” value in the data set with A. viscosus (vs triclosan, from Table III) is “about 7%”. In addition, the IC50 was 3.7 µM in data set [1] (HEPM cells, 1.0 ng/mL IL-1β, 24 hours, normalized to viable cells (MTT)); 100 µM at COX-2 (oxygen consumption, read-out: IC50 Conc. to Inhibit 50% of COX-2 Activity); 17.4 µM on COX-1. For the same molecule, the “efficacy as PGE2 inhibitor relative to triclosan” value in data set [1] (vs triclosan, from Table I) is roughly 2 times. In addition, at COX-2 (vs triclosan, from Table II), the “efficacy as COX-2 inhibitor relative to triclosan” value was “over 2 times”. On COX-1 (vs triclosan, from Table II), the “efficacy as COX-1 inhibitor relative to triclosan” value is “over 2 times”.
As for `O=c1c(O)c(-c2ccc(O)c(O)c2)oc2cc(O)cc(O)c12` [quercetin, pentahydroxyflavone], the adverse weight loss result in the data set on caries was “without adverse weight loss”.
Regarding `O=C(O)C=Cc1ccc(O)c(O)c1` [caffeic acid, 3,4-dihydroxycinnamic acid], in the data set with caries, the adverse weight loss entry is on record as “without adverse weight loss” and the inhibition of caries result is “inhibit caries”.
On to `Oc1cc(Cl)ccc1Oc1ccc(Cl)cc1Cl` [Triclosan, 2',4,4'-trichloro-2-hydroxy-diphenyl-ether], for which, in the data set with A. viscosus (24 h), the MIC was 3.61 µg/mL (≈ 12.5 µM). The IC50 in data set [1] (24 h) is 7 µM; against COX-2, 229 µM; at COX-1, 43 µM. For the same molecule, the “reduction of microbial challenge” value with microbial challenge is recorded as “reduces microbial challenge”. In addition, in the data set on cyclooxygenase, the “inhibition of cyclooxygenase activity” value was “inhibits cyclooxygenase activity”.
